Values of other authors as cited in patent US20110268669A1, “COMPOSITION AND METHOD FOR TREATING EUSTACHIAN TUBE DYSFUNCTION” (priority 2010, published 2011).

Details: taken as a chewing gum

OC[C@@H](O)[C@H](O)[C@@H](O)CO [Xylitol]
prevention of otitis media: shown to prevent otitis media
